Molecular target: CB2 (cannabinoid receptor subtype 2) (Homo sapiens, UniProt P34972)
Type: binding

CB2 (cannabinoid receptor subtype 2), sequence (P34972 whole entry): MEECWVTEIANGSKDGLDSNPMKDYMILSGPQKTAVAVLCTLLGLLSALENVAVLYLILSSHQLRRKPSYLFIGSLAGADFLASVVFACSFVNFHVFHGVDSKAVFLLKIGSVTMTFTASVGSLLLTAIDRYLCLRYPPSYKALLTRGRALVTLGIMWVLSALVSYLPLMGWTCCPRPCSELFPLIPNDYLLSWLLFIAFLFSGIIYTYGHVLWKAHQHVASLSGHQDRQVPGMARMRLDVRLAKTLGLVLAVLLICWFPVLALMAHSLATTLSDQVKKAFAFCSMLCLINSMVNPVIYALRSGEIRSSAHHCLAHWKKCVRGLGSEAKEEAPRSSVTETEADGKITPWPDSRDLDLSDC

Structure (SMILES)	Ki [nM]
O=C1c2ccccc2NC(=N/N=C/c2cccs2)[C@@H]2CCCN12 [4g, (S,E)-11-[2-(2-thiophenylmethylene)hydrazono]-pyrrolo[2,1-c][1,4]benzodiazepine]	490
O=C1c2ccccc2NC(=N/N=C/c2c[nH]c3ccccc23)[C@@H]2CCCN12 [4h, (S,E)-11-[2-(3-indolylmethylene)hydrazono]-pyrrolo[2,1-c][1,4]benzodiazepine]	4700
